Reference: ChEMBL document CHEMBL1201862, “PubChem BioAssay data set” (2004)
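48-hour exposure; five concentrations; linearly interpolated endpoints. GI50 is the concentration that inhibits growth by half.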 The source made the active and inactive calls. Rule as the data show it: active = GI50 up to about 1.1 µM and inactive = higher.

How the values were obtained:
Test in all cases: NCI anticancer screen, dose series, 48 h
ACHN = system: ACHN
CAKI-1 = system: CAKI-1
HCC 2998 = system: HCC 2998
HCT-116 = system: HCT-116
HOP-62 = system: HOP-62
K562 = system: K562
KM12 = system: KM12
M14 = system: M14
MDA-N = system: MDA-N
MOLT-4 = system: MOLT-4
NCI-H522 = system: NCI-H522
PC-3 = system: PC-3
RPMI-8226 = system: RPMI-8226
SF-295 = system: SF-295
SF-539 = system: SF-539
SK-MEL-28 = system: SK-MEL-28
SK-OV-3 = system: SK-OV-3
SN12C = system: SN12C
SNB-75 = system: SNB-75
M19-MEL = system: M19-MEL

| SMILES | GI50 (ACHN) | GI50 (CAKI-1) | GI50 (HCC 2998) | GI50 (HCT-116) | GI50 (HOP-62) | GI50 (K562) | GI50 (KM12) | GI50 (M14) | GI50 (MDA-N) | GI50 (MOLT-4) | GI50 (NCI-H522) | GI50 (PC-3) | GI50 (RPMI-8226) | GI50 (SF-295) | GI50 (SF-539) | GI50 (SK-MEL-28) | GI50 (SK-OV-3) | GI50 (SN12C) | GI50 (SNB-75) | GI50 (M19-MEL) |
| --- | --- | --- | --- | --- | --- | --- | --- | --- | --- | --- | --- | --- | --- | --- | --- | --- | --- | --- | --- | --- |
| CC1(C)OCC(C2OC(=O)C(OCc3ccccc3)=C2OCc2ccccc2)O1 (stereo not drawn) | 31.5 µM (inactive) | 45.2 µM (inactive) | 36.8 µM (inactive) | 31.3 µM (inactive) | 81.8 µM (inactive) | 27.4 µM (inactive) | 32 µM (inactive) | 45.5 µM (inactive) | 38 µM (inactive) | 23 µM (inactive) | 23.3 µM (inactive) | 21 µM (inactive) | 24 µM (inactive) | 34 µM (inactive) | 72.6 µM (inactive) | 65.6 µM (inactive) | 52.6 µM (inactive) | 39.4 µM (inactive) | 49.9 µM (inactive) |  |
| CCCCOCCOC1=C(Cl)C(=O)c2c(O)ccc(O)c2C1=O | 0.321 µM (active) | 0.407 µM (active) | 2.5 µM (inactive) | 0.261 µM (active) | 1.17 µM (inactive) | 0.0356 µM (active) | 1.83 µM (inactive) | 0.217 µM (active) | 0.272 µM (active) | 0.051 µM (active) | 0.392 µM (active) | 1.6 µM (inactive) | 0.255 µM (active) | 1.53 µM (inactive) | 0.993 µM (active) | 0.562 µM (active) | 2.98 µM (inactive) | 0.465 µM (active) | 0.687 µM (active) |  |
| COc1ccc(N/N=C(\CCN(C)C)c2ccccc2)cc1 | 1.36 µM (inactive) |  |  | 3.56 µM (inactive) | 2.1 µM (inactive) | 2.39 µM (inactive) | 4.73 µM (inactive) | 10.9 µM (inactive) |  | 3.39 µM (inactive) | 10.7 µM (inactive) |  | 2.39 µM (inactive) | 0.437 µM (active) | 1.68 µM (inactive) | 2.69 µM (inactive) | 3.41 µM (inactive) | 3.9 µM (inactive) | 8.04 µM (inactive) | 3.82 µM (inactive) |
| C[C@@H]1CC[C@@H]2[C@@H](C1)O[C@@H]([C@H](C)OCc1ccccc1)SC2(C)C | 18.8 µM (inactive) | 34.8 µM (inactive) | 17.9 µM (inactive) | 14.7 µM (inactive) | 34.4 µM (inactive) | 19.6 µM (inactive) | 18.5 µM (inactive) | 16.8 µM (inactive) | 23.7 µM (inactive) | 18.4 µM (inactive) | 19.7 µM (inactive) | 31.5 µM (inactive) | 17.4 µM (inactive) | 17.5 µM (inactive) | 29.2 µM (inactive) | 32.1 µM (inactive) | 30.5 µM (inactive) | 18.7 µM (inactive) | 16.4 µM (inactive) |  |
| O=C([C@H](O)[C@@H](O)c1cccc(Cl)c1)C12CC3CC(CC(C3)C1)C2 | 1.91 µM (inactive) | 2.08 µM (inactive) | 2.11 µM (inactive) | 1.86 µM (inactive) | 2.69 µM (inactive) | 2.98 µM (inactive) | 2.26 µM (inactive) | 2.45 µM (inactive) | 1.93 µM (inactive) | 2.84 µM (inactive) | 2.23 µM (inactive) | 1.87 µM (inactive) | 0.838 µM (active) | 3.15 µM (inactive) | 1.77 µM (inactive) | 3.21 µM (inactive) | 8.71 µM (inactive) | 1.61 µM (inactive) | 1.72 µM (inactive) |  |
| Nc1ccccc1OCCCOc1ccccc1N | > 100 µM (inactive) | > 100 µM (inactive) | > 100 µM (inactive) | > 100 µM (inactive) | > 100 µM (inactive) | > 100 µM (inactive) | > 100 µM (inactive) | > 100 µM (inactive) | 51.8 µM (inactive) | > 100 µM (inactive) | > 100 µM (inactive) | > 100 µM (inactive) | > 100 µM (inactive) | > 100 µM (inactive) | > 100 µM (inactive) | > 100 µM (inactive) | > 100 µM (inactive) | > 100 µM (inactive) | > 100 µM (inactive) |  |
| COc1ccc(/C(=N/N=c2\[nH]c3ccccc3n2Cc2ccccc2)C(=O)O)cc1 | 22.6 µM (inactive) | 16.7 µM (inactive) | 10 µM (inactive) | 12.7 µM (inactive) | 10.5 µM (inactive) | 22.7 µM (inactive) | 17.5 µM (inactive) | 14.5 µM (inactive) | 32 µM (inactive) | 7.8 µM (inactive) | 8.65 µM (inactive) | 7.41 µM (inactive) | 10 µM (inactive) | 6.81 µM (inactive) | 23.7 µM (inactive) | 23.8 µM (inactive) | 13.7 µM (inactive) | 5.96 µM (inactive) | 18.3 µM (inactive) |  |
| OCC1CC2C=CCC(C2)C1 (stereo not drawn) | > 100 µM (inactive) | > 100 µM (inactive) |  | > 100 µM (inactive) | > 100 µM (inactive) | > 100 µM (inactive) | > 100 µM (inactive) | > 100 µM (inactive) |  | > 100 µM (inactive) | > 100 µM (inactive) |  | > 100 µM (inactive) | > 100 µM (inactive) | > 100 µM (inactive) | > 100 µM (inactive) | > 100 µM (inactive) | > 100 µM (inactive) | > 100 µM (inactive) | > 100 µM (inactive) |
| Cn1c(=O)c2c(nc3n(CC(O)CCl)c(=O)ccn23)n(C)c1=O (stereo not drawn) | 15.4 µM (inactive) | 17 µM (inactive) | 58.7 µM (inactive) | 18.2 µM (inactive) | 46.9 µM (inactive) | 39.2 µM (inactive) | 19.9 µM (inactive) | 52.7 µM (inactive) | 35.2 µM (inactive) | 6.17 µM (inactive) | 16.6 µM (inactive) | > 100 µM (inactive) | 19.5 µM (inactive) | 47.5 µM (inactive) | 46.7 µM (inactive) | 66.7 µM (inactive) | 45.1 µM (inactive) | 18.3 µM (inactive) | 29.1 µM (inactive) |  |
| S=C(N/N=C(/c1ccccc1)c1ccccn1)Nc1ccc(Cl)cc1 | 0.322 µM (active) | 0.264 µM (active) | 1.88 µM (inactive) | < 0.0162 µM (active) | 1.93 µM (inactive) | < 0.01 µM (active) | 1.07 µM (active) | 0.03 µM (active) | 1.09 µM (active) | < 0.0171 µM (active) | 1.16 µM (inactive) | 0.0476 µM (active) | < 0.0221 µM (active) | 0.627 µM (active) | 1.45 µM (inactive) | 2.28 µM (inactive) | 0.175 µM (active) | 0.211 µM (active) | 2.06 µM (inactive) |  |
| COc1cccc(/N=C/c2cc(OC)c(OC)c(OC)c2)c1 | 20.8 µM (inactive) | > 100 µM (inactive) | > 88.9 µM (inactive) | > 100 µM (inactive) | 94 µM (inactive) | 3.58 µM (inactive) | 33.2 µM (inactive) | 36.2 µM (inactive) | 25.8 µM (inactive) | > 72.1 µM (inactive) | > 100 µM (inactive) | > 100 µM (inactive) | > 100 µM (inactive) | 69.8 µM (inactive) | > 100 µM (inactive) | > 75.7 µM (inactive) | > 100 µM (inactive) | > 100 µM (inactive) | > 100 µM (inactive) |  |
| COC(=O)c1cc(O)c(O)c(O)c1-c1c(O)c(O)c(O)c(SC[C@H](NC(=O)OCc2ccccc2)C(=O)OCc2ccccc2)c1C(=O)OC | 22.5 µM (inactive) | 18.7 µM (inactive) | 24.1 µM (inactive) | 17.3 µM (inactive) | 35.1 µM (inactive) | 19.6 µM (inactive) | 31.9 µM (inactive) | 17.9 µM (inactive) | 19.8 µM (inactive) | 17.6 µM (inactive) | 22.3 µM (inactive) | 22.6 µM (inactive) | 21.8 µM (inactive) | 35.3 µM (inactive) | 28.4 µM (inactive) | 30.1 µM (inactive) | 41.9 µM (inactive) | 19.4 µM (inactive) | 20.3 µM (inactive) |  |
| O=C(CSc1nnc(SCC(=O)NN=C2CCCCC2)s1)NN=C1CCCCC1 | > 100 µM (inactive) | > 100 µM (inactive) | > 100 µM (inactive) | > 100 µM (inactive) | > 100 µM (inactive) | > 100 µM (inactive) | > 100 µM (inactive) | > 100 µM (inactive) | > 100 µM (inactive) | > 100 µM (inactive) | > 100 µM (inactive) | > 100 µM (inactive) | > 100 µM (inactive) | > 100 µM (inactive) | > 100 µM (inactive) | > 100 µM (inactive) | > 100 µM (inactive) | > 100 µM (inactive) | > 100 µM (inactive) |  |
| CC(C)(CCc1nc2ccccc2[nH]1)C(=O)O | > 100 µM (inactive) | > 100 µM (inactive) | > 100 µM (inactive) | > 100 µM (inactive) | > 100 µM (inactive) | > 28 µM (inactive) | > 100 µM (inactive) | > 100 µM (inactive) | > 100 µM (inactive) | > 100 µM (inactive) | > 100 µM (inactive) | > 100 µM (inactive) | > 100 µM (inactive) | > 100 µM (inactive) | > 100 µM (inactive) | > 100 µM (inactive) | > 100 µM (inactive) | > 100 µM (inactive) | > 100 µM (inactive) |  |
| Fc1ccc(C2SCc3nc4ccccc4n32)cc1 (stereo not drawn) | 34.8 µM (inactive) | 36.8 µM (inactive) |  | 32.4 µM (inactive) | 35.8 µM (inactive) | 31.3 µM (inactive) | 37.2 µM (inactive) | 43.3 µM (inactive) |  | 32.1 µM (inactive) | 14.1 µM (inactive) |  | 26.4 µM (inactive) | 40.7 µM (inactive) | > 100 µM (inactive) | 23.6 µM (inactive) | 94.6 µM (inactive) | 27 µM (inactive) | 3.1 µM (inactive) | 41 µM (inactive) |
